Experimental data taken from ChEMBL document CHEMBL1201862, “PubChem BioAssay data set” (2004).
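The compound was tested at five concentrations on cells cultured in 96-well plates, with a 48-hour exposure period. GI50 = concentration required for 50% inhibition of growth.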 Activity calls are given as the source filed them. Cut-off read from the data, not from the text of the source: active = GI50 up to about 1.1 µM and inactive = higher.

Legend:
Assay in all cases: NCI-60 cell line screen, 48 h
NCI-H522 = system: NCI-H522
SN12C = system: SN12C
HL-60 = system: HL-60
NCI-H460 = system: NCI-H460
SR = system: SR
MOLT-4 = system: MOLT-4
HCT-116 = system: HCT-116
NCI-H226 = system: NCI-H226
SK-OV-3 = system: SK-OV-3
U-251 = system: U-251
786-0 = system: 786-0
OVCAR-3 = system: OVCAR-3
SNB-19 = system: SNB-19
SF-539 = system: SF-539
KM12 = system: KM12
HOP-62 = system: HOP-62
UO-31 = system: UO-31
CAKI-1 = system: CAKI-1
K562 = system: K562
HT-29 = system: HT-29

Structure (SMILES) | GI50 (NCI-H522) | GI50 (SN12C) | GI50 (HL-60) | GI50 (NCI-H460) | GI50 (SR) | GI50 (MOLT-4) | GI50 (HCT-116) | GI50 (NCI-H226) | GI50 (SK-OV-3) | GI50 (U-251) | GI50 (786-0) | GI50 (OVCAR-3) | GI50 (SNB-19) | GI50 (SF-539) | GI50 (KM12) | GI50 (HOP-62) | GI50 (UO-31) | GI50 (CAKI-1) | GI50 (K562) | GI50 (HT-29)
O=C(O)C1C(Br)(c2ccccc2)C1(Br)c1ccccc1 (stereo not given) | 17.6 µM (inactive) | 34.4 µM (inactive) | 12.4 µM (inactive) | 14.2 µM (inactive) | 2.88 µM (inactive) | 15.2 µM (inactive) | 39.7 µM (inactive) | 27.2 µM (inactive) | 27.5 µM (inactive) | 27.6 µM (inactive) | 32.3 µM (inactive) | 50.4 µM (inactive) | 27.4 µM (inactive) | 52.7 µM (inactive) | 33.4 µM (inactive) | 37 µM (inactive) | 16.2 µM (inactive) | 23.9 µM (inactive) | 20.1 µM (inactive) | 20.7 µM (inactive)
CC(C)(C)C1=NO[C@H]2[C@@H](NC(=O)c3ccccc3)CC[C@@H]12 | > 100 µM (inactive) | > 100 µM (inactive) | > 100 µM (inactive) | > 100 µM (inactive) | > 100 µM (inactive) | > 100 µM (inactive) | > 100 µM (inactive) | > 100 µM (inactive) | > 100 µM (inactive) | > 100 µM (inactive) | > 100 µM (inactive) | > 100 µM (inactive) | > 100 µM (inactive) | > 100 µM (inactive) | > 100 µM (inactive) | > 100 µM (inactive) | > 100 µM (inactive) | > 100 µM (inactive) | > 100 µM (inactive) | > 100 µM (inactive)
N=C(N)NS(=O)(=O)c1ccc(Nc2c3ccccc3nc3c(C(=O)NCCO)cccc23)cc1 | 0.158 µM (active) | 0.202 µM (active) | 0.293 µM (active) | 0.127 µM (active) | 0.136 µM (active) | 0.0885 µM (active) | 0.223 µM (active) | 0.142 µM (active) | 0.236 µM (active) | 0.184 µM (active) | 0.191 µM (active) | 0.142 µM (active) | 0.221 µM (active) | 0.193 µM (active) | 0.177 µM (active) | 0.186 µM (active) | 0.175 µM (active) | 0.205 µM (active) | 0.216 µM (active) | 0.16 µM (active)
CC(=O)OC(C)(C)C[N+](=O)[O-] | 63.4 µM (inactive) | > 100 µM (inactive) | 26 µM (inactive) | > 100 µM (inactive) | > 100 µM (inactive) | > 100 µM (inactive) | > 100 µM (inactive) | > 100 µM (inactive) | > 100 µM (inactive) | > 100 µM (inactive) | > 100 µM (inactive) | > 100 µM (inactive) | > 100 µM (inactive) | > 100 µM (inactive) | > 100 µM (inactive) | > 100 µM (inactive) | > 100 µM (inactive) | > 100 µM (inactive) | > 100 µM (inactive) | > 100 µM (inactive)
CCC1=CCN(c2cc(C)ccn2)OC1c1ccc(OC)cc1 (stereo not given) | 16 µM (inactive) | 26 µM (inactive) | 22.5 µM (inactive) | 31.7 µM (inactive) | 25.5 µM (inactive) | 26.9 µM (inactive) | 21.2 µM (inactive) | 38.3 µM (inactive) | 48.8 µM (inactive) | 21.5 µM (inactive) | 34.8 µM (inactive) | 42.7 µM (inactive) | 46.1 µM (inactive) | > 10 µM (inactive) | 31.2 µM (inactive) | 44.3 µM (inactive) | 25.6 µM (inactive) | 34.4 µM (inactive) | 34 µM (inactive) | 21.6 µM (inactive)
COc1ccc2c(c1)CCCc1c-2nc2ccccc2c1N | 13.6 µM (inactive) | 4.38 µM (inactive) | 13.9 µM (inactive) | 4.44 µM (inactive) | 2.57 µM (inactive) | 8.59 µM (inactive) | 5.81 µM (inactive) | 13.8 µM (inactive) | 10.4 µM (inactive) | 12.7 µM (inactive) | 6.11 µM (inactive) | 12.9 µM (inactive) | 15.9 µM (inactive) | 12.4 µM (inactive) | 14 µM (inactive) | 1.52 µM (inactive) | 5.35 µM (inactive) | 9.02 µM (inactive) | 5.14 µM (inactive) | 3.3 µM (inactive)
